We go through two compounds from paper PMC6085999, “Elucidating the Inhibitory Potential of Designed Peptides Against Amyloid Fibrillation and Amyloid Associated Cytotoxicity” (Frontiers in Chemistry, 2018).

For the test, the target named is T1, Human insulin (HI) amyloid fibrillation (Homo sapiens, UniProt P01308).
T1 construct: Insulin is a covalent dimer of two polypeptide chains (chain A and chain B) having 21 and 30 amino acid residues, respectively
In words: ThT fluorescence assay of insulin fibrillation. In kind it is biochemical. As to conditions: for pIC50: 3-parameter dose response fit of normalized ThT intensity at 483 nm vs log [peptide], insulin incubated at 60°C for 72 h, 50 mM acetate buffer pH 2.0, peptide 0-750 μM, triplicates, read-out: IC50 against insulin aggregation; for percent inhibition of aggregation (ThT fluorescence): insulin incubated at 60°C for 72 h with peptide (Supplementary Figure S2), concentration not given. The procedure: Stock solution of insulin was prepared by dissolving insulin lyophilized powder in 50 mM acetate buffer, pH 2.0, and insulin concentration was determined by measuring absorbance at 276 nm, with the extinction coefficients of […] for 1 mg/ml. Fibrils were prepared by incubating insulin solution at 60°C for 72 h.
ThT stock solution was prepared by dissolving ThT in double distilled water, and the resulting solution was passed through a 0.2 micron millipore filter. The concentration of ThT was determined by measuring absorbance at 412 nm with a molar extinction coefficient of 36,600 M^−1cm^−1. ThT fluorescence assay was carried out on Shimadzu fluorescence spectrophotometer (RF-5301 PC). Insulin samples were incubated with or without peptides; from each set, samples were withdrawn at definite time intervals and mixed with ThT to have the final protein and dye concentration of 20 μM. The ThT was excited at 440 nm, and fluorescence spectra were recorded from 460 to 650 nm. Buffer (pH 2.0) was used for dilution, and spectra were corrected for the respective blanks. All measurements were performed in triplicates. All curves were fitted as described previously (Chaturvedi et al., [2015]).

pIC50: −log10 of the molar value. Residues, ends and D or L forms follow the SMILES beside them.

T1 sequence (P01308 25-54 limits assumed): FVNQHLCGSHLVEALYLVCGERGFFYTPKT
T1 sequence (P01308 90-110 limits assumed): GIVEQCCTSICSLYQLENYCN

Take `CC[C@H](C)[C@H](NC(=O)[C@@H](N)C(C)C)C(=O)N[C@@H](Cc1ccccc1)C(=O)N[C@@H](Cc1ccc(O)cc1)C(=O)N[C@H](C(=O)O)[C@@H](C)O` [Peptide P4, Val-Ile-Phe-Tyr-Thr] (H-VIFYT-OH): the pIC50 (commonly −log10 of the IC50, conventionally taken in molar units) is 3.56 and the “percent inhibition of aggregation (ThT fluorescence)” value came out at 82%.

For `CC(C)[C@H](N)C(=O)N[C@H](C(=O)N[C@H](C(=O)N[C@H](C(=O)N[C@H](C(=O)O)C(C)C)C(C)C)C(C)C)C(C)C` [Peptide P5, Val-Val-Val-Val-Val] (H-VVVVV-OH), the negative-log IC50 (pIC50) is 3.35 and the “percent inhibition of aggregation (ThT fluorescence)” value is given as 56%.
